Laboratory results as given in ChEMBL document CHEMBL1159318, “Anti-inflammatory and anti-tumor-promoting effects of cucurbitane glycosides from the roots of Bryonia dioica” (J Nat Prod, 2002).

Experiments:
[1] = test system: Mus musculus; assay: Antiinflammatory activity against ICR mouse assessed as inhibition ratio of TPA-induced ear edema at 1 mg/ear, topically preincubated 30 mins before TPA challenge relative to TPA; type: functional; set-up: scale not given: the % may be the effect or the level left
[2] = Cytotoxicity against human Raji cells assessed as cell viability at 1000 molar ratio after 48 hrs by trypan blue assay; type: cell-based; conditions: read-out: Activity
[3] = test system: Raji; assay: Inhibition of TPA-induced EBV-early antigen activation in human Raji cells at 1000 molar ratio after 48 hrs relative to TPA; values are per cent of control; conditions: human gammaherpesvirus 4
[4] = test system: Raji; assay: Inhibition of TPA-induced EBV-early antigen activation in human Raji cells at 10 molar ratio after 48 hrs relative to TPA; values are per cent of control; conditions: human gammaherpesvirus 4
[5] = test system: Raji; assay: Inhibition of TPA-induced EBV-early antigen activation in human Raji cells at 500 molar ratio after 48 hrs relative to TPA; values are per cent of control; conditions: human gammaherpesvirus 4
[6] = test system: Raji; assay: Inhibition of TPA-induced EBV-early antigen activation in human Raji cells at 100 molar ratio after 48 hrs relative to TPA; values are per cent of control; conditions: human gammaherpesvirus 4
[7] = test system: Mus musculus; assay: Antiinflammatory activity against ICR mouse assessed as inhibition of TPA-induced ear edema compound administered topically preincubated 30 mins before TPA challenge; type: functional

| Compound | Activity [1] [%] | viability at 48 h, 1000 molar ratio [2] [%] | level, % of control [3] [%] | level, % of control [4] [%] | level, % of control [5] [%] | level, % of control [6] [%] | ID50 [7] [mg] |
| --- | --- | --- | --- | --- | --- | --- | --- |
| C[C@H](CC[C@@H](O)C(C)(C)O)[C@H]1CC[C@@]2(C)[C@@H]3CC=C4[C@@H](CC[C@H](O[C@@H]5O[C@H](CO)[C@@H](O)[C@H](O)[C@H]5O[C@@H]5O[C@@H](C)[C@H](O)[C@@H](O)[C@H]5O)C4(C)C)[C@]3(C)C(=O)C[C@]12C [BRYONIOSIDE B] | 94 | 60 | 0 | 97.4 | 29.9 | 72.7 | 0.2 |
| C[C@H](C(O)CC(O)C(C)(C)O[C@@H]1O[C@H](CO)[C@@H](O)[C@H](O)[C@H]1O)[C@H]1CC[C@@]2(C)[C@@H]3CC=C4[C@@H](CC[C@H](O)C4(C)C)[C@]3(C)C(=O)C[C@]12C (stereo not given in full) [BRYONIOSIDE E] | 94 | 60 | 11.6 | 100 | 37 | 77.2 | 0.2 |
| C[C@H](CC[C@@H](O)C(C)(C)O[C@@H]1O[C@H](CO)[C@@H](O)[C@H](O)[C@H]1O)[C@H]1CC[C@@]2(C)[C@@H]3CC=C4[C@@H](CC[C@H](O)C4(C)C)[C@]3(C)C(=O)C[C@]12C [BRYONIOSIDE A] |  | 60 | 3.4 | 100 | 30.4 | 75.1 |  |
| C[C@H](CCC(=O)C(C)(C)O)[C@H]1CC[C@@]2(C)[C@@H]3CC=C4[C@@H](CC[C@H](O)C4(C)C)[C@]3(C)C(=O)C[C@]12C [BRYOSIGENIN] |  | 70 | 0 | 92.7 | 28.9 | 73.5 |  |
| CC(C)(O)CCC(=O)[C@@](C)(O)[C@H]1[C@H](O)C[C@@]2(C)[C@@H]3CC=C4[C@@H](C=C(O[C@@H]5O[C@H](CO)[C@@H](O)[C@H](O)[C@H]5O)C(=O)C4(C)C)[C@]3(C)C(=O)C[C@]12C [BRYOAMARIDE] | 51 | 60 | 0 | 96 | 28.7 | 71.7 | 0.7 |
| CC(=O)O[C@@H]1[C@@H](O)[C@@H](O)[C@H](O[C@H]2[C@H](O[C@H]3CC[C@@H]4C(=CC[C@@H]5[C@@]4(C)C(=O)C[C@]4(C)[C@@H]([C@H](C)CC[C@@H](O)C(C)(C)O)CC[C@@]54C)C3(C)C)O[C@H](CO)[C@@H](O)[C@@H]2O)O[C@H]1C [BRYONIOSIDE C] | 83 | 60 | 0 | 100 | 30.2 | 73.5 | 0.3 |
| C[C@H](CC[C@@H](O)C(C)(C)O)[C@H]1CC[C@@]2(C)[C@@H]3CC=C4[C@@H](CC[C@H](O)C4(C)C)[C@]3(C)C(=O)C[C@]12C [BRYODULCOSIGENIN] |  | 70 | 0 | 88.9 | 23.6 | 69.3 |  |
| C[C@H](CC[C@@H](O)C(C)(C)O)[C@H]1CC[C@@]2(C)[C@@H]3C[C@@H]4O[C@]45[C@@H](CC[C@H](O[C@@H]4O[C@H](CO)[C@@H](O)[C@H](O)[C@H]4O)C5(C)C)[C@]3(C)C(=O)C[C@]12C [5ALPHA,6ALPHA-EPOXYCABENOSIDE D] |  | 60 | 0 | 95.3 | 28.6 | 70 |  |
| CC1=C(/C=C/C(C)=C/C=C/C(C)=C/C=C/C=C(C)/C=C/C=C(C)/C=C/C2=C(C)CCCC2(C)C)C(C)(C)CCC1 |  |  | 8.6 | 100 | 34.2 | 82.1 |  |
| C[C@H](CCC(=O)C(C)(C)O)[C@H]1CC[C@@]2(C)[C@@H]3CC=C4[C@@H](CC[C@H](O[C@@H]5O[C@H](CO)[C@@H](O)[C@H](O)[C@H]5O)C4(C)C)[C@]3(C)C(=O)C[C@]12C [BRYONIOSIDE F] |  | 60 | 0 | 97.6 | 29.2 | 71.4 |  |
| COc1ccc2c(c1)c(CC(=O)O)c(C)n2C(=O)c1ccc(Cl)cc1 [INDOMETHACIN] | 96 |  |  |  |  |  | 0.3 |
| C[C@H](CC[C@@H](O)C(C)(C)O)[C@H]1CC[C@@]2(C)[C@@H]3CC=C4[C@@H](CC[C@H](O[C@@H]5O[C@H](CO)[C@@H](O)[C@H](O)[C@H]5O)C4(C)C)[C@]3(C)C(=O)C[C@]12C [CABENOSIDE D] | 66 | 60 | 0 | 94.1 | 26.1 | 69.3 | 0.6 |
| O=c1c(O)c(-c2ccc(O)c(O)c2)oc2cc(O)cc(O)c12 [QUERCETIN] | 40 |  |  |  |  |  | 1.6 |
| C[C@H](CCC(=O)C(C)(C)O)[C@H]1CC[C@@]2(C)[C@@H]3CC=C4[C@@H](CC[C@H](O[C@@H]5O[C@H](CO)[C@@H](O)[C@H](O)[C@H]5O[C@@H]5O[C@@H](C)[C@H](O)[C@@H](O)[C@H]5O)C4(C)C)[C@]3(C)C(=O)C[C@]12C [BRYONIOSIDE G] | 90 | 60 | 0 | 100 | 30.6 | 74.2 | 0.2 |
